Results: US20100311729A1, “Substituted imidazopyridazines and pyrrolopyrimidines as lipid kinase inhibitors” (priority 2007, published 2010)

Legend:
Assay type in all cases: biochemical
PI3K beta = target: T1, PI3K beta (Homo sapiens, UniProt P42338); test: PI3 kinase assay (Kinase-Glo luminescence), PI3K beta; conditions: Enzymatic Data; read-out: PI3K beta IC50 [umol]
T1 construct: for the full-length p110-b subunit are generated and fused by overlapping PCR; His tag (C); made in house; host or cells: baculovirus; Tn5 (Trichoplusia ni) or TiniPro insect cells
T1 sequence (P42338 with tags, fused parts or gaps limits assumed): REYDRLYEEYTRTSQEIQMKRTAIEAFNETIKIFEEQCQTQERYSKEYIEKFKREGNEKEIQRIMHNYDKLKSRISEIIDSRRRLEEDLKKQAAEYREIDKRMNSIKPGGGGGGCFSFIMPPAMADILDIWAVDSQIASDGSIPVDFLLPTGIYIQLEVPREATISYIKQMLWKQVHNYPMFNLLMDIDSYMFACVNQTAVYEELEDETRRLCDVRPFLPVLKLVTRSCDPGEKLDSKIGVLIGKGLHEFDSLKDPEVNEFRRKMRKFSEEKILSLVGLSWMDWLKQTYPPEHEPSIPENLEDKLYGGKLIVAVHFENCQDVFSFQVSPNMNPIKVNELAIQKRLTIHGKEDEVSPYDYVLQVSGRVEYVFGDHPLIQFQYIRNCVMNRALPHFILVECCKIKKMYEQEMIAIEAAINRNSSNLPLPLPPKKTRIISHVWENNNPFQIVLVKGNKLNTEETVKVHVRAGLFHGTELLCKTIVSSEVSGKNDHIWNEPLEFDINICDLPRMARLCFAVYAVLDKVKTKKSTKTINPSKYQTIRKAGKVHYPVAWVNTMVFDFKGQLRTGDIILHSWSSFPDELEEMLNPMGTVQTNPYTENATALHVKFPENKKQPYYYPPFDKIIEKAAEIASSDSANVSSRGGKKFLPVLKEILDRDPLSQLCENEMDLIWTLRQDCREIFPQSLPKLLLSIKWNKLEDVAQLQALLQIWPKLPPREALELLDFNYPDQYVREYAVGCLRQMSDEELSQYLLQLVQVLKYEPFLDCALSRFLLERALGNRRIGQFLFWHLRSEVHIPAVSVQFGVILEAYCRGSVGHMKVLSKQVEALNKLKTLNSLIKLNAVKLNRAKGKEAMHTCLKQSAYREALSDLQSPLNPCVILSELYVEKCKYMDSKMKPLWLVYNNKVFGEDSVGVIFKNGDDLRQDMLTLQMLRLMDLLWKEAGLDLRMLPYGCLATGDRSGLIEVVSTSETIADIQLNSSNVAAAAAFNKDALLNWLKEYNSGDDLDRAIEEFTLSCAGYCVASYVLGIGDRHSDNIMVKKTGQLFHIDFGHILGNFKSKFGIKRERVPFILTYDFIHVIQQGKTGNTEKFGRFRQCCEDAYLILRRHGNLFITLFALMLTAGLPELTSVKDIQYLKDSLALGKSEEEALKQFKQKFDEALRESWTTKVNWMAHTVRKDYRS
Experimental: (§1) In a more preferred assay, the kinase reaction is performed in a final volume of 10 μL per well of a low volume non binding CORNING, 384 well black plate (Cat. No. #3676). The final concentrations of ATP and phosphatidyl inositol (PI) in the assay are 1 μM and 10 μg/mL respectively. The reaction is started by the addition of ATP.
(§2) The components of the assay are added per well as follows:
(§3) 50 nL test compounds in 90% DMSO per well, in columns 1-20, 8 concentrations (1/3 and 1/3.33 serial dilution step) in single. • Low control: 50 nL of 90% DMSO in half the wells of columns 23-24 (0.45% in final). • High control: 50 nL of reference compound (e.g. compound of Example 7 in WO 2006/122806, incorporated by reference hereinin that regard) in the other half of columns 23-24 (2.5 μM in final). • Standard: 50 nL of reference compound as just mentioned diluted as the test compounds in columns 21-22 • 20 mL ‘buffer’ are prepared per assay: • 200 μL of 1M TRIS HCl pH7.5 (10 mM in final) • 60 μL of 1M MgCl2 (3 mM in final) • 500 μL of 2M NaCl (50 mM in final) • 100 μL of 10% CHAPS (0.05% in final) • 200 μL of 100 mM DTT (1 mM in final) • 18.94 mL of nanopure water • 10 mL ‘PI’ are prepared per assay: • 200 μL of 1 mg/ml L-alpha-Phosphatidylinositol (Liver Bovine, Avanti Polar Lipids Cat. No. 840042C MW=909.12) prepared in 3% OctylGlucoside (10 μg/ml in final) • 9.8 mL of ‘buffer’ • 10 mL ‘ATP’ are prepared per assay: • 6.7 μL of 3 mM stock of ATP giving a final concentration of 1 μM per well • 10 mL of ‘buffer’ • 2.5 mL of each PI3K construct are prepared per assay in ‘PI’ with the following final concentration : • 10 nM PI3K alfa B-1075 • 25 nM beta BV-949 • 10 nM delta BV-1060 • 150 nM gamma BV-950 • 5 μL of ‘PI/PI3K’ are added per well. • 5 μl ‘ATP’ are added per well to start the reaction. • The plates are then incubated at room temperature for 60 minutes (alfa, beta, delta) or 120 minutes (gamma). • The reaction is terminated by the addition of 10 μL Kinase-Glo (Promega Cat. No. #6714). • The assay plates are read after 10 minutes in Synergy 2 reader (BioTek, Vermont USA) with an integration time of 100 milliseconds and sensitivity set to 191. • Output : The High control is around 60'000 counts and the Low control is 30'000 or lower • This luminescence assay gives a useful Z′ ratio between 0.4 and 0.7
(§4) […] is determined by a four parameter curve fitting routine that comes aloneg with “excel fit”. A 4 Parameter logistic equation is used to calculate IC50 values (IDBS XLfit) of the percentage inhibition of each compound at 8 concentrations (usually 10, 3.0, 1.0, 0.3, 0.1, 0.030, 0.010 and […]). Alternatively, IC50 values are calculated using idbsXLfit model 204, which is a 4 parameter logistic model.
(§5) Testing with the following kinases in the test system mentioned above, with the kinases given in the following tables, the following IC 50 data can be obtained: […]

PI3K delta = target: T2, PI3K delta (Homo sapiens, UniProt O00329); test: PI3 kinase assay (Kinase-Glo luminescence), PI3K delta; conditions: Enzymatic Data; read-out: PI3K delta IC50 [umol]
T2 construct: for the full-length p110-d subunit are generated and fused by overlapping PCR; His tag (C); made in house; host or cells: baculovirus; Tn5 (Trichoplusia ni) or TiniPro insect cells
T2 sequence (O00329 with tags, fused parts or gaps limits assumed): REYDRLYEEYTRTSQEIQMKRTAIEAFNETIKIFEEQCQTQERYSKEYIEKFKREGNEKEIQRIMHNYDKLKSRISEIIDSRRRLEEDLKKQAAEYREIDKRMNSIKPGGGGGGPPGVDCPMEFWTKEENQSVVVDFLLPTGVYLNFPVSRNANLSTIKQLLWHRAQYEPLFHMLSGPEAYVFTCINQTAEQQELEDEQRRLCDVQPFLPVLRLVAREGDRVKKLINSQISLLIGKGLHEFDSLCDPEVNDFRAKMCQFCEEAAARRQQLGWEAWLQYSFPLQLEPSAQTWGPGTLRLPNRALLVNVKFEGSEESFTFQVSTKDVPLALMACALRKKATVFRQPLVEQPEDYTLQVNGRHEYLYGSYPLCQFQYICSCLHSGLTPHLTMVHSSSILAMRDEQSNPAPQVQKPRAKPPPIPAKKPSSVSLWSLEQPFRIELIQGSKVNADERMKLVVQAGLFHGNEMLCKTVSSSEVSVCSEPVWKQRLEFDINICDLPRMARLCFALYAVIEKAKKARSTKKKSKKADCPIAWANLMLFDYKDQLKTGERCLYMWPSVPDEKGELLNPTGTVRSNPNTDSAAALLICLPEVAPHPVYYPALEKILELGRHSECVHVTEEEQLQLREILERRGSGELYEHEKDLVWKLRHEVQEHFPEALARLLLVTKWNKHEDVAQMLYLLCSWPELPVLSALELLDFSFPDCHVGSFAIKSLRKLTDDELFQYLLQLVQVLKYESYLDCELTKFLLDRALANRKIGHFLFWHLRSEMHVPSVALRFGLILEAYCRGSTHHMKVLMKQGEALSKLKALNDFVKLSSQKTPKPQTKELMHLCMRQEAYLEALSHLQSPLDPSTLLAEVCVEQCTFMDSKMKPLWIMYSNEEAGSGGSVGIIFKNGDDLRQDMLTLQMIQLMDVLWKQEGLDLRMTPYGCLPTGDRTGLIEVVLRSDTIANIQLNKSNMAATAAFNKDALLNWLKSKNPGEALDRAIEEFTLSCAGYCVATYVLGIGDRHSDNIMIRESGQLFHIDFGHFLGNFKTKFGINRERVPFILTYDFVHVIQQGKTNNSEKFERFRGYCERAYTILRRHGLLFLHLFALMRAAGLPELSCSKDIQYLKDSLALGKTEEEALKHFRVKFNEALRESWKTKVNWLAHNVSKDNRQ
Experimental: as §1, §2, §3, §4, §5

PI3K gamma = target: T3, PI3K gamma (Homo sapiens, UniProt P48736); test: PI3 kinase assay (Kinase-Glo luminescence), PI3K gamma; conditions: Enzymatic Data; read-out: PI3K gamma IC50 [umol]
T3 construct: PI3Kγ BV-950 p110g(D144aa)-C-Term His Tag; His tag (C); made in house; host or cells: construct from the Roger Williams lab (MRC LMB) in pVL1393; baculovirus; Tn5 (Trichoplusia ni) or TiniPro insect cells
T3 sequence (P48736 144-1102 limits assumed): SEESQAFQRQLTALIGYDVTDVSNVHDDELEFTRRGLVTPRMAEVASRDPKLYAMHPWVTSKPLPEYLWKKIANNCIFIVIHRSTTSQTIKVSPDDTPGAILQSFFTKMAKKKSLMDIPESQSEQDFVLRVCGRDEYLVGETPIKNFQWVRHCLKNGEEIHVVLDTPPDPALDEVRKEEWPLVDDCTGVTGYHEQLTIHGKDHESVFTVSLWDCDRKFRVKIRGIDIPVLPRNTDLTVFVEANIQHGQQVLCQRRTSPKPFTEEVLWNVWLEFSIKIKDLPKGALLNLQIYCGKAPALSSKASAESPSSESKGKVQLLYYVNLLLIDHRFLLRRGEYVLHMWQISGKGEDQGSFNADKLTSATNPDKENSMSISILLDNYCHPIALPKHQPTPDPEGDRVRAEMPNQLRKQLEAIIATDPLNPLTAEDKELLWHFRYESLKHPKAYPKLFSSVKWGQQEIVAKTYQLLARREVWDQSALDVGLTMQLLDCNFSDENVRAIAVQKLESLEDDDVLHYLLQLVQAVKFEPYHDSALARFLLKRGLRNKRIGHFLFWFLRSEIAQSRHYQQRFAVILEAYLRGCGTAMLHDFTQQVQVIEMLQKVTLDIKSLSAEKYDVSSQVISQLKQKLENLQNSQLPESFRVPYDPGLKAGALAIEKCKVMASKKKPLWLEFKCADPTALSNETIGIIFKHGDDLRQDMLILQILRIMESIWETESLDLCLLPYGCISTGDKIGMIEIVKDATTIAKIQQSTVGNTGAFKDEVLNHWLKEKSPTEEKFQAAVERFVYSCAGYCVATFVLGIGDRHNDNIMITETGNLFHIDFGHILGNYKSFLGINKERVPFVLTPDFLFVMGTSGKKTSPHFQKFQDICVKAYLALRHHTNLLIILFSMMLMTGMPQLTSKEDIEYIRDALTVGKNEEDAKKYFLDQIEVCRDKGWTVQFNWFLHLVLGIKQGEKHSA
Experimental: as §1, §2, §4

PI3K alfa = target: T4, PI3K alfa (Homo sapiens, UniProt P42336); test: PI3 kinase assay (Kinase-Glo luminescence), PI3K alfa; conditions: Enzymatic Data; read-out: PI3K alfa IC50 [umol]
T4 construct: for the p110-a subunit (with a deletion of the first 20 amino acids); His tag (C); made in house; host or cells: baculovirus; Tn5 (Trichoplusia ni) or TiniPro insect cells
T4 sequence (P42336 with tags, fused parts or gaps limits assumed): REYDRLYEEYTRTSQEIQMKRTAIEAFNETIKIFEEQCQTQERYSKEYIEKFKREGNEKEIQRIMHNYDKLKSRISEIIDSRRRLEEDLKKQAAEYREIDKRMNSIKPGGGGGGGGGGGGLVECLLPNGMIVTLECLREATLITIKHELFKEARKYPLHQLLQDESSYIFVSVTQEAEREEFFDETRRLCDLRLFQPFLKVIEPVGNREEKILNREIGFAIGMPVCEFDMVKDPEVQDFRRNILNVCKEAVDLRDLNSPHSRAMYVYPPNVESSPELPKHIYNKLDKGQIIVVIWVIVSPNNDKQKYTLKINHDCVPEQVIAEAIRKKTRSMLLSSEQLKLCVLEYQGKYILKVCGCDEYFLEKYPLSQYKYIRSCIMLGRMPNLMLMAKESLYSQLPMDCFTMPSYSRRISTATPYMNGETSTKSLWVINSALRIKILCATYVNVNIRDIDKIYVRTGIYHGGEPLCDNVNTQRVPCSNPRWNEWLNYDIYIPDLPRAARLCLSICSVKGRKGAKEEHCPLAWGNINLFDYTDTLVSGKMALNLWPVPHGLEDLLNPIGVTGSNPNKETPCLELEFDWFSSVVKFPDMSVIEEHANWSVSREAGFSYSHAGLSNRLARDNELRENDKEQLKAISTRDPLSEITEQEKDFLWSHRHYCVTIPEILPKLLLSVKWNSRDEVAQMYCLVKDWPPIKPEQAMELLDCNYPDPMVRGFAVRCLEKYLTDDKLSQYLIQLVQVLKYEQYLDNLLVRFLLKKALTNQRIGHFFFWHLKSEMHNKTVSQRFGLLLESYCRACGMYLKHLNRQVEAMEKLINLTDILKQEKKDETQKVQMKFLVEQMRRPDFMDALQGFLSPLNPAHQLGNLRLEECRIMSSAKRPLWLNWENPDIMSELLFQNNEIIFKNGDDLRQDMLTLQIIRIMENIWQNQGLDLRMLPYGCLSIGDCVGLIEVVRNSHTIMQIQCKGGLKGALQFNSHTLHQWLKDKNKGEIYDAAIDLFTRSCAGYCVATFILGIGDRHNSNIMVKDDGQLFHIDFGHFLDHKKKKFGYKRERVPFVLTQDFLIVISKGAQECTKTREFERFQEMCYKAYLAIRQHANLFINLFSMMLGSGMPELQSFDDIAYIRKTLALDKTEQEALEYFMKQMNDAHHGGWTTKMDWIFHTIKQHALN
Experimental: as §1, §2, §3, §4, §5

| Compound | IC50 (PI3K beta) [nM] | IC50 (PI3K delta) [nM] | IC50 (PI3K gamma) [nM] | IC50 (PI3K alfa) [nM] |
| --- | --- | --- | --- | --- |
| Nc1ncc(-c2ccc3ncc(-c4cncc(C(F)(F)F)c4)n3n2)cc1C(F)(F)F [Example 54, 3-Trifluoro-methyl-5-[3-(5-trifluoro-methyl-pyridin-3-yl)-imidazo [1,2-b]pyridazin-6-yl]-pyridin-2-ylamine] | 274 | 231 | 814 | 147 |
| COc1cc(-c2ccc3ncc(-c4cnc(N)c(C(F)(F)F)c4)n3n2)ccc1OCCNC(=O)C(C)C [Example 60, N-(2-{4-[3-(6-Amino-5-trifluoro-methyl-pyridin-3-yl)-imidazo [1,2-b]pyridazin-6-yl]-2-methoxy-phenoxy}-ethyl)-isobutyr-amide] | 267 | 223 | 159 | 36 |
| COc1cc(-c2ccc3ncc(-c4cnc(N)c(C(F)(F)F)c4)n3n2)ccc1OCCNC(=O)C1CC1 [Example 61, Cyclo-propane-carboxylic acid (2-{4-[3-(6-amino-5-trifIuoro-methyl-pyridin-3-yl)-imidazo [1,2-b)pyridazin-6-yl]-2-methoxy-phenoxy}-ethyl)-amide] | 1000 | 428 | 884 | 205 |
| CC(C)C(=O)NCCCOc1ccc(-c2ccc3ncc(-c4cnc(N)c(C(F)(F)F)c4)n3n2)cc1OC(F)(F)F [Example 64, N-(3-{4-[3-(6-Amino-5-trifluoro-methyl-pyridin-3-yl)-imidazo [1,2-b]pyridazin-6-yl]-2-trifluoro-methoxy-phenoxy}-propyl)-iso-butyramide] | > 9100 | 6810 | 316 | 562 |
| Nc1cnc(-c2cnc3ccc(-c4cnc(N)c(C(F)(F)F)c4)nn23)cn1 [Example 66, 5-[6-(6-Amino-5-trifluoro-methyl-pyridin-3-yl)-imidazo [1,2-b]pyridazin-3-yl]-pyrazin-2-ylamine] | 3 | 17 | 479 | 8 |
| COc1nc(-c2cnc3ccc(-c4cnc(N)c(C(F)(F)F)c4)nn23)cnc1N [Example 67, 5-[6-(6-Amino-5-trifIuoro-methyl-pyridin-3-yl)-imidazo[1,2-b]pyridazin-3-yl]-3-methoxy-pyrazin-2-ylamine] | 21 | 85 | 2630 | 34 |
| COc1ccc(-c2ccc3ncc(-c4cnc(N)c(OC)n4)n3n2)cc1OC [Example 68, 5-[6-(3,4-Dimethoxy-phenyl)-imidazo [1,2-b]pyridazin-3-yl]-3-methoxy-pyrazin-2-ylamine] | 51 | 26 | 1300 | 9 |
| CC(C)(C)OC(=O)NCCn1cc(-c2ccc3ncc(-c4cnc(N)c(C(F)(F)F)c4)n3n2)ccc1=O [Example 69, (2-{5-[3-(6-Amino-5-trifluoro-methyl-pyridin-3-yl)-imidazo [1,2-b]pyridazin-6-yl]-2-oxo-2H-pyridin-1-yl}-ethyl)-carbamic acid tert-butyl ester] | 1430 | 156 | 2430 | 50 |

More lines, now with the values ahead:

| IC50 (PI3K beta) [nM] | IC50 (PI3K delta) [nM] | IC50 (PI3K gamma) [nM] | IC50 (PI3K alfa) [nM] | Compound |
| --- | --- | --- | --- | --- |
| 183 | 167 | 56 | 203 | NCCCOc1ccc(-c2ccc3ncc(-c4cnc(N)c(C(F)(F)F)c4)n3n2)cc1 [Example 56, 5-{6-[4-(3-Amino-propoxy)-phenyl]-imidazo [1,2-b]pyridazin-3-yl}-3-trifluoro-methyl-pyridin-2-ylamine] |
| 3370 | 384 | 1040 | 23 | CC(C)C(=O)NCCCOc1ccc(-c2ccc3ncc(-c4cnc(N)c(C(F)(F)F)c4)n3n2)cc1 [Example 57, N-(3-{4-[3-(6-Amino-5-trifluoro-methyl-pyridin-3-yl)-imidazo [1,2-b]pyridazin-6-yl]-phenoxy}-propyl)-isobutyr-amide] |
| > 9100 | 2140 | > 9100 | 87 | Nc1ncc(-c2cnc3ccc(-c4ccc(OCCCNC(=O)C5CC5)cc4)nn23)cc1C(F)(F)F [Example 58, Cyclopropanecarboxylic acid (3-{4-[3-(6-amino-5-trifluoromethyl-pyridin-3-yl)-imidazo[1,2-b]pyridazin-6-yl]-phenoxy}-propyl)-amide] |
| 24 | 60 | 401 | 33 | COc1cc(-c2ccc3ncc(-c4cnc(N)c(C(F)(F)F)c4)n3n2)ccc1OCCN [Example 59, 5-{6-[4-(2-Amino-ethoxy)-3-methoxy-phenyl]-imidazo [1,2-b]pyridazin-3-yl}-3-trifluoro-methyl-pyridin-2-ylamine] |
| 156 | 138 | 1360 | 28 | COc1cc(-c2ccc3ncc(-c4cnc(N)c(C(F)(F)F)c4)n3n2)ccc1OCCNC(C)=O [Example 62, N-(2-{4-[3-(6-Amino-5-trifluoro-methyl-pyridin-3-yl)-imidazo[1,2-b]pyridazin-6-yl]-2-methoxy-phenoxy}-ethyl)-acetamide] |
| 176 | 180 | 39 | 153 | NCCCOc1ccc(-c2ccc3ncc(-c4cnc(N)c(C(F)(F)F)c4)n3n2)cc1OC(F)(F)F [Example 63, 5-{6-[4-(3-Amino-propoxy)-3-trifluoro-methoxy-phenyl]-imidazo [1,2-b]pyridazin-3-yl}-3-trifluoro-methyl-pyridin-2-ylamine] |
| 505 | 345 | 483 | 26 | COc1cc(-c2ccc3ncc(-c4cnc(N)c(C(F)(F)F)c4)n3n2)ccc1OCCCNC(=O)C1CC1 [Example 65] |
| 49 | 63 | 491 | 58 | NCCn1cc(-c2ccc3ncc(-c4cnc(N)c(C(F)(F)F)c4)n3n2)ccc1=O [Example 70, 1-(2-Amino-ethyl)-5-[3-(6-amino-5-trifluoro-methyl-pyridin-3-yl)-imidazo [1,2-b]pyridazin-6-yl]-1H-pyridin-2-one] |
| 2650 | 739 | 8510 | 170 | CC(=O)NCCCOc1ccc(-c2ccc3ncc(-c4cnc(N)c(C(F)(F)F)c4)n3n2)cc1 [Example 71, N-(3-{4-[3-(6-Amino-5-trifluoro-methyl-pyridin-3-yl)-imidazo [1,2-b]pyridazin-6-yl]-phenoxy}-propyl)-acetamide] |
| 233 | 56 | 2020 | 28 | CC(C)S(=O)(=O)c1ccc(-c2cnc3ccc(-c4cnc(N)c(C(F)(F)F)c4)nn23)cc1 [Example 72, 5-{3-[4-(Propane-2-sulfonyl)-phenyl]-imidazo[1,2-b]pyridazin-6-yl}-3-trifluoro-methyl-pyridin-2-lamine] |
